Source: patent US20260166039A1 (SCHRÖDINGER, INC., priority 2022, published 2026)
Read-outs that look alike come from different tables or passages of the source.

Assays:
Wee1 kinase domain = biological target: T1, Wee1 kinase domain (Homo sapiens, UniProt P30291); assay: Wee1 Kinase Biochemical Assay (ADP-Glo); details: 15 uM ATP
T1 construct: Wee1 kinase domain was purchased from Carna (catalog #05-177); purchased Carna 05-177
Outline: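 Compounds tested against 1 nM Wee1 kinase domain in Tris buffer containing 20 mM MgCl2, BSA and 2 mM DTT, with 15 uM ATP and poly(Lys,Tyr) substrate for 4 h at 25 °C. Luminescent ADP detection gave percent inhibition, normalized to DMSO and saturating inhibitor.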

[1] = system: phosphorylation of Cdc2 Y15 (Wee1 substrate) in A427 cells; assay: Phosphorylated Cdc2 MSD Electrochemiluminescence Assay; assay type: cell-based; details: Homo sapiens
Outline: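 Read-out: percent residual phospho-Cdc2 Y15 relative to DMSO and positive-control Wee1 inhibitor, measured by MSD electrochemiluminescence capture/detection antibody assay in cell lysates. A427 cells received duplicate 3-fold compound dilution series 20 h post-seeding, with 6 h total incubation at 37 °C.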

[2] = class symbols, 1 nM Wee1 enzyme, 4 hours at 25° C.
[3] = A-427, class symbols, read-out: A427 pCDC2 MSD IC50

T1 sequence (P30291 299-569 limits assumed): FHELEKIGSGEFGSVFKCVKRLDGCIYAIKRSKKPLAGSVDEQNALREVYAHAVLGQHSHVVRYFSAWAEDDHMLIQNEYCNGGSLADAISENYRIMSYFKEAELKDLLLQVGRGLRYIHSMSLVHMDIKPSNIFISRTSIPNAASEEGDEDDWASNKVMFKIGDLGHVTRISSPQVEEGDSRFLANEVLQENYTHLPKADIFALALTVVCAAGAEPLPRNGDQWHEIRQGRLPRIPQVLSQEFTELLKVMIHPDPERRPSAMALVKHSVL

CC1(C)C[C@H]2N(c3cccc(P(C)(C)=O)n3)c3nc(Nc4ccn(C5CCOCC5)c(=O)c4)ncc3[C@@]2(C)CO1 (single isomer, unassigned) [Example 780]
IC50 (Wee1 kinase domain; [2]): < 0.01 µM
IC50 [1, 3]: < 0.1 µM

C[C@H]1COC(=O)N1c1cccc(N2c3nc(Nc4ccn(C5CCOCC5)c(=O)c4)ncc3[C@@]3(C)COC(C)(C)C[C@@H]23)n1 (single isomer, unassigned) [Example 781]
IC50 (Wee1 kinase domain; [2]): < 0.01 µM
IC50 [1, 3]: 0.1 to 1 µM

C[C@H]1COC(=O)N1c1cccc(N2c3nc(Nc4ccc(N5CC6(CN(C)C6)C5)cc4)ncc3[C@@]3(C)COCC[C@@H]23)n1 (single isomer, unassigned) [Example 784]
IC50 (Wee1 kinase domain; [2]): < 0.01 µM
IC50 [1, 3]: 0.1 to 1 µM

CC1(C)C[C@H]2N(c3cccc(N=S(C)(C)=O)n3)c3nc(Nc4ccnnc4)ncc3[C@@]2(C)CO1 (single isomer, unassigned) [Example 799]
IC50 (Wee1 kinase domain; [2]): < 0.01 µM
IC50 [1, 3]: 1 to 10 µM

CN1CCC(n2ccc(Nc3ncc4c(n3)N(c3cccc(C(C)(C)O)n3)[C@@H]3CC(C)(C)OC[C@]43C)cc2=O)CC1 (single isomer, unassigned) [Example 810]
IC50 (Wee1 kinase domain; [2]): < 0.01 µM
IC50 [1, 3]: 0.1 to 1 µM

CN1CC[C@@H](Oc2ccc(Nc3ncc4c(n3)N(c3cccc(C(C)(C)O)n3)C3CC(C)(C)OCC43C)cc2)C1 (stereo in doubt) [Example 423, 2-(6-((4bR,8aR)-4b,7,7-trimethyl-2-((4-(((R)-1-methylpyrrolidin-3-yl)oxy)phenyl)amino)-4b,7,8,8a-tetrahydropyrano[3′,4′:4,5]pyrrolo[2,3-d]pyrimidin-9(5H)-yl)pyridin-2-yl)propan-2-ol]
IC50 (Wee1 kinase domain; [2]): < 0.01 µM
IC50 [1, 3]: 0.1 to 1 µM

CC1(C)CC2N(c3cccc([C@@H]4CCNC4)n3)c3nc(Nc4ccc(N5CCOCC5)cc4)ncc3C2(C)CO1 (stereo in doubt) [Example 539, (4bR,8aR)-4b,7,7-trimethyl-N-(4-morpholinophenyl)-9-(6-((R)-pyrrolidin-3-yl)pyridin-2-yl)-4b,5,7,8,8a,9-hexahydropyrano[3′,4′:4,5]pyrrolo[2,3-d]pyrimidin-2-amine]
IC50 (Wee1 kinase domain; [2]): < 0.01 µM
IC50 [1, 3]: 0.1 to 1 µM

CN[C@H]1CCc2ccc(N3c4nc(Nc5ccc(N6CCOCC6)cc5)ncc4C4(C)COC(C)(C)CC34)nc21 (stereo in doubt) [Example 551, (4bR,8aR)-4b,7,7-trimethyl-9-((S)-7-(methylamino)-6,7-dihydro-5H-cyclopenta[b]pyridin-2-yl)-N-(4-morpholinophenyl)-4b,5,7,8,8a,9-hexahydropyrano[3′,4′:4,5]pyrrolo[2,3-d]pyrimidin-2-amine]
IC50 (Wee1 kinase domain; [2]): < 0.01 µM
IC50 [1, 3]: < 0.1 µM

C[C@H]1CCC(=O)N1c1cccc(N2c3nc(Nc4cnn(C5CCN(C)CC5)c4)ncc3C3(C)COC(C)(C)CC23)n1 (stereo in doubt) [Example 556, (S)-5-methyl-1-(6-((4bR,8aR)-4b,7,7-trimethyl-2-((1-(1-methylpiperidin-4-yl)-1H-pyrazol-4-yl)amino)-4b,7,8,8a-tetrahydropyrano[3′,4′:4,5]pyrrolo[2,3-d]pyrimidin-9(5H)-yl)pyridin-2-yl)pyrrolidin-2-one]
IC50 (Wee1 kinase domain; [2]): < 0.01 µM
IC50 [1, 3]: 0.1 to 1 µM

CN1C[C@H]2C[C@@H]1CN2c1ccc(Nc2ncc3c(n2)N(c2cccc(C4(O)CC4)n2)C2CC(C)(C)OCC32C)cc1 (stereo in doubt) [Example 646, 1-(6-((4bR,8aR)-4b,7,7-trimethyl-2-((4-((1R,4R)-5-methyl-2,5-diazabicyclo[2.2.1]heptan-2-yl)phenyl)amino)-4b,7,8,8a-tetrahydropyrano[3′,4′:4,5]pyrrolo[2,3-d]pyrimidin-9(5H)-yl)pyridin-2-yl)cyclopropan-1-ol]
IC50 (Wee1 kinase domain; [2]): < 0.01 µM
IC50 [1, 3]: 0.1 to 1 µM

CN1CC2CC1CN2c1ccc(Nc2ncc3c(n2)N(c2cccc(C(F)F)n2)[C@@H]2CC(C)(C)OC[C@]32C)cc1 (stereo in doubt) [Example 814, (4bR,8aR)-9-(6-(difluoromethyl)pyridin-2-yl)-4b,7,7-trimethyl-N-(4-((1R,4R)-5-methyl-2,5-diazabicyclo[2.2.1]heptan-2-yl)phenyl)-4b,5,7,8,8a,9-hexahydropyrano[3′,4′:4,5]pyrrolo[2,3-d]pyrimidin-2-amine]
IC50 (Wee1 kinase domain; 1 nM Wee1 enzyme, 4 hours at 25° C): < 0.01 µM
IC50 ([1]; A-427, read-out: A427 pCDC2 MSD IC50): 0.1 to 1 µM

CN1CCN(c2ccc(Nc3ncc4c(n3)N(c3cccc(N=S(C)(C)=O)n3)[C@@H]3CC(C)(C)OC[C@]43C)cc2)CC1 [Example 100, Dimethyl((6-((4bR,8aR)-4b,7,7-trimethyl-2-((4-(4-methylpiperazin-1-yl)phenyl)amino)-4b,7,8,8a-tetrahydropyrano[3′,4′:4,5]pyrrolo[2,3-d]pyrimidin-9(5H)-yl)pyridin-2-yl)imino)-l6-sulfanone]
IC50 (Wee1 kinase domain; Wee1 kinase domain, ADP-Glo): < 0.01 µM
IC50 ([1]; A-427, pCDC2 MSD): < 0.1 µM

CNC(=O)c1ccc(Nc2ncc3c(n2)N(c2cccc(N=S(C)(C)=O)n2)[C@@H]2CC(C)(C)OC[C@]32C)cc1F [Example 119, 4-(((4bR,8aR)-9-(6-((dimethyl(oxo)-16-sulfaneylidene)amino)pyridin-2-yl)-4b,7,7-trimethyl-4b,5,7,8,8a,9-hexahydropyrano[3′,4′:4,5]pyrrolo[2,3-d]pyrimidin-2-yl)amino)-2-fluoro-N-methylbenzamide]
IC50 (Wee1 kinase domain; Wee1 kinase domain, ADP-Glo): < 0.01 µM
IC50 ([1]; A-427, pCDC2 MSD): 0.1 to 1 µM

CN1CCC(n2ccc(Nc3ncc4c(n3)N(c3cccc(N=S(C)(C)=O)n3)[C@@H]3CC(C)(C)OC[C@]43C)cc2=O)CC1 [Example 152, 4-(((4bR,8aR)-9-(6-((dimethyl(oxo)-16-sulfaneylidene)amino)pyridin-2-yl)-4b,7,7-trimethyl-4b,5,7,8,8a,9-hexahydropyrano[3′,4′:4,5]pyrrolo[2,3-d]pyrimidin-2-yl)amino)-1-(1-methylpiperidin-4-yl)pyridin-2(1H)-one]
IC50 (Wee1 kinase domain; Wee1 kinase domain, ADP-Glo): < 0.01 µM
IC50 ([1]; A-427, pCDC2 MSD): 0.1 to 1 µM

CN1CCC(n2cc(Nc3ncc4c(n3)N(c3cccc(N=S(C)(C)=O)n3)[C@@H]3CC(C)(C)OC[C@]43C)cn2)C1 (stereo partly drawn) [Example 196, dimethyl((6-((4bR,8aR)-4b,7,7-trimethyl-2-((1-((R)-1-methylpyrrolidin-3-yl)-1H-pyrazol-4-yl)amino)-4b,7,8,8a-tetrahydropyrano[3′,4′:4,5]pyrrolo[2,3-d]pyrimidin-9(5H)-yl)pyridin-2-yl)imino)-16-sulfanone]
IC50 (Wee1 kinase domain; Wee1 kinase domain, ADP-Glo): < 0.01 µM
IC50 ([1]; A-427, pCDC2 MSD): 0.1 to 1 µM

CN1CC2(C1)CN(c1ccc(Nc3ncc4c(n3)N(c3cccc(N=S(C)(C)=O)n3)[C@@H]3CC(C)(C)OC[C@]43C)cc1)C2 [Example 219, dimethyl((6-((4bR,8aR)-4b,7,7-trimethyl-2-((4-(6-methyl-2,6-diazaspiro[3.3]heptan-2-yl)phenyl)amino)-4b,7,8,8a-tetrahydropyrano[3′,4′:4,5]pyrrolo[2,3-d]pyrimidin-9(5H)-yl)pyridin-2-yl)imino)-l6-sulfanone]
IC50 (Wee1 kinase domain; Wee1 kinase domain, ADP-Glo): < 0.01 µM
IC50 ([1]; A-427, pCDC2 MSD): 0.1 to 1 µM

C[C@H]1COC(=O)N1c1cccc(N2c3nc(Nc4ccc(N5CCN(C)CC5)nn4)ncc3[C@@]3(C)COC(C)(C)C[C@@H]23)n1 [Example 249]
IC50 (Wee1 kinase domain; Wee1 kinase domain, ADP-Glo): < 0.01 µM
IC50 ([1]; A-427, pCDC2 MSD): 0.1 to 1 µM

CN(C)Cc1cccc(N2c3nc(Nc4ccc(C(C)(C)C(=O)O)cc4)ncc3[C@@]3(C)COC(C)(C)C[C@@H]23)n1 [Example 611]
IC50 (Wee1 kinase domain; [2]): < 0.01 µM
IC50 [1, 3]: 1 to 10 µM
